Experiments:
[1] = test system: mice with valproic acid (VPA)-induced ASD; conditions: cited from earlier work
[2] = test system: BTBR and B6 mice; experiment: Self-grooming paradigm (SGP); assay type: in vivo; conditions: BTBR mice; RAM 10 mg/kg i.p. co-administered with ST-2223 5 mg/kg
Method: (§1) The drugs tested included ST-2223 [N-(4-(4-(2-methoxyphenyl)piperazin-1-yl)butyl)-6-(3-(piperidin-1-yl)propoxy)-2-naphthamide] that was designed and synthesized in the Institute of Pharmaceutical and Medicinal Chemistry, Heinrich Heine University Düsseldorf, Germany, and in accordance with previously described methodologies (Supplementary Materials). Aripiprazole (ARP) (1 mg/kg, i.p.) and memantine (MEM, 5 mg/kg, i.p.), as reference drugs, were purchased from Sigma-Aldrich (St. Louis, MO, USA). The CNS-penetrant H3R agonist (R)-α-methylhistamine (RAM, 10 mg/kg, i.p.) was purchased from Sigma-Aldrich, St. Louis, MO, USA. T. Protease and the phosphatase inhibitor cocktail were procured from Thermo Scientific, USA. The assay kit for reduced glutathione (GSH) was obtained from Sigma-Aldrich (St. Louis, MO, USA). The lipid peroxidation assay kit for estimation of malondialdehyde (MDA) was purchased from North West Life Science (Vancouver, WA, USA). The assay kits for superoxide dismutase (SOD) and catalase (CAT) were purchased from Cayman Chemical (Ann Arbor, MI, USA). The drugs were prepared daily using 1% dimethyl sulfoxide (DMSO) in 0.9% saline, for intraperitoneal (i.p.) administration at a volume of 10 mL/kg of body weight. Vehicle treatment consisted of 1% DMSO in 0.9% normal saline. All drugs were i.p. administered 30 min before the behavioral test. The doses of these drugs were chosen based on previous reports. Neurobehavioral assessment was performed blindly with respect to experimental group and drug administration.
In the SGP test, mice were scored for spontaneous grooming behaviors. […] To measure SGP, each mouse was placed individually in a standard clear plastic cage (28 cm wide × 17 cm long × 12 cm high) for a total of 20 min. Mice were allowed to freely explore the cage for the entire test, the first 10 min served as a habituation period. After 10 min habituation, each mouse was scored with a stopwatch for 10 min for cumulative time spent grooming all body regions. Grooming behavior included head washing, body grooming, genital/tail grooming and paw and leg licking. The observer sat approximately 1 m from the test cage during the second 10 min of testing.

[3] = test system: BTBR and B6 mice; experiment: Marble burying task (MBT); assay type: in vivo; conditions: BTBR mice
Method: as §1
The MBT is used for testing repetitive and compulsive behaviors as it accurately reflects repetitive digging behavior [95, 96]. The test was performed as described previously, with slight modifications. Briefly, cages (26 cm × 48 cm × 20 cm) were filled with fresh, unscented mouse bedding material to a depth of 5 cm, on top of which 20 marbles were placed in 4 rows of 5 marbles each (15 mm diameter). Before placing the marbles, the bedding surface was leveled by placing another cage of the same size onto the surface of the bedding and then each mouse was individually added for 10 min habituation. After habituation, the mouse was removed, and the marbles were carefully overlaid. The same mouse was then returned to its designated test cage and allowed to explore for 30 min. The total number of marbles buried (>50% marble covered by the bedding material) was determined at the end of the session.

[4] = test system: BTBR and B6 mice; experiment: Spontaneous alternation behavior (SAB), Y maze; assay type: in vivo; conditions: BTBR mice; RAM 10 mg/kg i.p. co-administered with ST-2223 5 mg/kg
Method: as §1
The SAB test is based on the exploratory strategy of rodents to explore a new environment. In examining repetitive behaviors, the Y maze test took advantage of the rodents’ natural tendency to spontaneously alternate or choose a different arm of the maze instead of the one they visited on their previous entry (i.e., least recently visited arm). A decrease in the percentage alternation can also be attributed to same arm repeated visits. Spontaneous alternation behavior was measured on a Y maze apparatus, as previously described, with slight modifications. The Y maze composed of three arms (30 cm × 6 cm × 15 cm), where the arms were labeled with letters: A, B, or C. The test mouse was placed in the center of the maze and was allowed to freely explore the maze for 8 min. The number of entries into each arm and the total number of entries were recorded by the observer. A spontaneous alternation was defined as successive entry into three arms on an overlapping triplet set. Percentage spontaneous alternation was calculated as the number of spontaneous alternations (actual alternations) over the total number of entries (possible alternations). Two arm entries were subtracted from the denominator because an alternation required at least 3 entries. The apparatus was cleaned with 70% alcohol solution after each mouse was tested. (1) Percentage spontaneous alternations=Total alternations/(Total arm entries − 2) ×100

[5] = test system: BTBR and B6 mice; experiment: Open field test (OFT): locomotor activity and anxiety levels; assay type: in vivo; conditions: BTBR mice
Method: as §1
The open field test (OFT) systematically evaluates exploration behaviors executed in a novel open field (considered as a novel environment), as an independent control for the effects of the drugs on physical activity that could confound the interpretation of the results from the self-grooming, anxiety and spontaneous alternation. Mice were allowed to freely explore an open-field arena (45 × 45 × 30 cm), to assess general locomotor activity, and anxiety-related behaviors. The center arena was defined as the central 23 × 23 cm area. Mice were given 5 min to habituate in the center area of the arena before the recording started for the actual behavioral assessments. Recording lasted for 10 min using charge-coupled device (CCD) camera-assisted motion tracking apparatus and software (EthoVision 3.1, Noldus Information Technology, The Netherlands), and the total distance moved in the whole arena, time spent in the center and periphery were recorded. Test chambers were cleaned with 70% ethanol after each trial and were allowed to dry until ethanol evaporation and odor dissipation had occurred. When interpreting the results observed in this assessment, less time spent in the center was considered as an indicator for high levels of anxiety-like behaviors and total distance travelled signified the overall locomotor activity of tested animals.

[6] = test system: mice sensitized with PCP; conditions: acute low dose of PCP in mice sensitized by repeated high-dose PCP; cited from earlier work
[7] = test system: oxidative stress markers (e.g., MDA and GSH); set-up: method as in PMID 27833522, PMID 27089413, PMID 22331799; conditions: amphetamine- or dizocilpine-augmented oxidative stress, mouse model of schizophrenia; cited from earlier work
[8] = RAM 10 mg/kg i.p. co-administered with ST-2223 5 mg/kg

SMILES: CCC(C)(C)c1ccc(OCCCN2CCCCC2)cc1 [DL77]
- percentage of marbles buried ([1]; adult male Tuck-Ordinary mice with VPA-induced ASD features, subchronic 5, 10, 15 mg/kg, i.p.): significant and dose-dependent

SMILES: C[C@@H](N)Cc1c[nH]cn1 [RAM, (R)-α-methylhistamine]
- effect of co-administration on the ST-2223 (5 mg)-induced decrease in time spent self-grooming [2]: nullified
- marble burying behavior vs saline-treated BTBR mice, given alone ([3]; RAM 10 mg/kg i.p. alone): did not alter
- effect of co-administration on the ST-2223 (5 mg)-stimulated decrease in percentage of buried marbles [3, 8]: reversed
- effect of co-administration on the ST-2223 (5 mg)-induced enhancement in alternation [4]: entirely reversed
- time spent in the center (OFT) vs saline-treated BTBR mice, given alone ([5]; RAM 10 mg/kg i.p. alone): did not induce any alternation
- effect of co-administration on the ST-2223 (5 mg)-induced increase in time spent in the center (OFT) [5, 8]: not reversed

SMILES: CN1CCCC1CCNS(=O)(=O)c1ccc2c(c1)CN(CC1CCCCC1)CC2 (centres unmarked) [SAR110894]
- deficit in working memory in the Y maze test [6]: reversed

SMILES: O=C(c1ccc(OCCCc2cnc[nH]2)cc1)C1CC1 [ciproxifan]
- repetitive behavior in the MBT ([1]; mice with VPA-induced ASD): reduced repetitive behavior
- oxidative stress markers (e.g., MDA and GSH) [7]: mitigated

SMILES: NC(=NCc1ccc(Cl)cc1)SCCCc1cnc[nH]1 [clobenpropit]
- oxidative stress markers (e.g., MDA and GSH) [7]: mitigated
